# Measurements from US20130065818A1, “Arylamide Compounds And Compositions And Uses Thereof” (POLYMEDIX, priority 2006, published 2013).
# Read-outs that look alike come from different tables or passages of the source.
# Key:
# Streptococcus pneumoniae = test: MIC, 25 ocular isolates, broth microdilution (Example 8); assay type: cell-based
# Experimental: (§1) Mueller-Hinton Broth supplemented with 2% lysed horse blood in tubes was inoculated with 25 ocular isolates of Streptococcus pneumoniae, Streptococcus viridans group, and Moraxella species (including Moraxella catarrhalis) plus two controls (Staphylococcus aureus and E. coli) and incubated at 37° C. overnight. Additionally, Mueller-Hinton Broth in tubes was inoculated with two controls (Staphylococcus aureus and E. coli) and incubated at 37° C. overnight on a shaker set at 250 rpm.
# (§2) On the day of testing, a 640 μg/ml (1280 μg/ml for Serratia marcescens and Pseudomonas aeruginosa) concentration was prepared from a 1% stock solution in 0.01% acetic acid, 0.2% BSA in polypropylene tubes.
# (§3) Serial doubling dilutions in 0.01% acetic acid, 0.2% BSA in 96 well polypropylene plates, which are used as reservoirs for the inoculation of the test plates, were carried out to obtain serial dilutions of test agents at 10 times the required test concentrations: 640, 320, 160, 80, 40, 20, 10, 5, 2.5, 1.25, and 0.625 μg/ml (1280, 640, 320, 160, 80, 40, 20, 10, 5, 2.5, and 1.25 μg/ml for Serratia marcescens and Pseudomonas aeruginosa).
# (§4) Ten μl of diluted 10×test agents was added to each well of one row of the 96 well polypropylene plates from column 2 to column 12 (column 1 is a control for bacteria alone, with no peptide). Test agent concentrations in columns 2-12 were as follows: 64, 32, 16, 8, 4, 2, 1, 0.5, 0.25, 0.125, and 0.0625 μg/ml (128, 64, 32, 16, 8, 4, 2, 1, 0.5, 0.25, and 0.125 μg/ml for Serratia marcescens and Pseudomonas aeruginosa). The same peptide was in each of the 8 rows. One plate contained dilutions of one test agent and 8 bacterial isolates.
# (§5) On the day of testing, the overnight bacterial broth cultures of Streptococcus pneumoniae, Streptococcus viridans and Moraxella species (including Moraxella catarrhalis) plus two controls (Staphylococcus aureus and E. coli) were diluted in 5 ml of trypticase soy broth to yield turbidity equal to a 0.5 McFarland standard. The final inoculum for MIC testing for Streptococcus pneumoniae, Streptococcus viridans and Moraxella species (including Moraxella catarrhalis) was achieved by placing 0.1 ml of the turbidity adjusted sample to 5 ml of Mueller-Hinton broth containing 2% lysed horse red blood cells.
# (§6) Ninety μl of the bacterial suspensions was dispensed in each well from column 1 to column 12. Each bacterial isolate was placed in one row of a 96 well polypropylene plate containing the test agents. The plates were placed on shaker at 15 minutes at room temperature, and then incubated at 37° C. overnight. MICs were determined visually as the lowest concentration of drug that inhibits visible bacterial growth.
# [1] = system: Streptococcus viridans group; test: as above; assay type: cell-based; conditions: for MIC: Streptococcus viridans
# Experimental: as §1, §2, §3, §4, §5, §6
# [2] = 25 isolates, Summary of Results, >64 was Replaced with 128
smiles,measurement,setting,value
N=C(N)NCCCCC(=O)Nc1cc(C(F)(F)F)cc(NC(=O)c2cc(C(=O)Nc3cc(C(F)(F)F)cc(NC(=O)CCCCNC(=N)N)c3O[C@@H]3CCNC3)ncn2)c1O[C@@H]1CCNC1 [Oligomer 4],MIC50,"Streptococcus pneumoniae; 25 isolates, Row 13",1 µg/mL
same,MIC90,"Streptococcus pneumoniae; 25 isolates, Row 22",2 µg/mL
same,Range of MICs,Streptococcus pneumoniae; [2],0.5 to 128 µg/mL
same,MIC,"Streptococcus pneumoniae; Streptococcus pneumoniae, 25 ocular isolates, Mueller-Hinton broth with 2% lysed horse red blood cells, read-out: Median MIC",≤ 4 µg/mL
same,MIC,"Streptococcus pneumoniae; Streptococcus pneumoniae, isolate 1—B1386, read-out: MIC",> 64 µg/mL
same,MIC,"Streptococcus pneumoniae; Streptococcus pneumoniae, isolate 2—B1380, read-out: MIC",1 µg/mL
same,MIC,"Streptococcus pneumoniae; Streptococcus pneumoniae, isolate 3—B1378, read-out: MIC",1 µg/mL
same,MIC,"Streptococcus pneumoniae; Streptococcus pneumoniae, isolate 4—B1377, read-out: MIC",2 µg/mL
same,MIC,"Streptococcus pneumoniae; Streptococcus pneumoniae, isolate 5—B1373, read-out: MIC",1 µg/mL
same,MIC,"Streptococcus pneumoniae; Streptococcus pneumoniae, isolate 6—B1367, read-out: MIC",1 µg/mL
same,MIC,"Streptococcus pneumoniae; Streptococcus pneumoniae, isolate 7—B1355, read-out: MIC",2 µg/mL
same,MIC,"Streptococcus pneumoniae; Streptococcus pneumoniae, isolate 8—B1353, read-out: MIC",1 µg/mL
same,MIC,"Streptococcus pneumoniae; Streptococcus pneumoniae, isolate 9—B1351, read-out: MIC",1 µg/mL
same,MIC,"Streptococcus pneumoniae; Streptococcus pneumoniae, isolate 10—B1339, read-out: MIC",1 µg/mL
same,MIC,"Streptococcus pneumoniae; Streptococcus pneumoniae, isolate 11—B1337, read-out: MIC",0.5 µg/mL
same,MIC,"Streptococcus pneumoniae; Streptococcus pneumoniae, isolate 12—B1335, read-out: MIC",2 µg/mL
same,MIC,"Streptococcus pneumoniae; Streptococcus pneumoniae, isolate 13—B1334, read-out: MIC",1 µg/mL
same,MIC,"Streptococcus pneumoniae; Streptococcus pneumoniae, isolate 14—B1333, read-out: MIC",1 µg/mL
same,MIC,"Streptococcus pneumoniae; Streptococcus pneumoniae, isolate 15—B1255, read-out: MIC",0.5 µg/mL
same,MIC,"Streptococcus pneumoniae; Streptococcus pneumoniae, isolate 16—B1288, read-out: MIC",1 µg/mL
same,MIC,"Streptococcus pneumoniae; Streptococcus pneumoniae, isolate 17—B1287, read-out: MIC",1 µg/mL
same,MIC,"Streptococcus pneumoniae; Streptococcus pneumoniae, isolate 18—B1272, read-out: MIC",0.5 µg/mL
same,MIC,"Streptococcus pneumoniae; Streptococcus pneumoniae, isolate 19—B1264, read-out: MIC",0.5 µg/mL
same,MIC,"Streptococcus pneumoniae; Streptococcus pneumoniae, isolate 20—B1252, read-out: MIC",1 µg/mL
same,MIC,"Streptococcus pneumoniae; Streptococcus pneumoniae, isolate 21—B1245, read-out: MIC",0.5 µg/mL
same,MIC,"Streptococcus pneumoniae; Streptococcus pneumoniae, isolate 22—B1211, read-out: MIC",1 µg/mL
same,MIC,"Streptococcus pneumoniae; Streptococcus pneumoniae, isolate 23—B1213, read-out: MIC",1 µg/mL
same,MIC,"Streptococcus pneumoniae; Streptococcus pneumoniae, isolate 24—B1208, read-out: MIC",0.5 µg/mL
same,MIC,"Streptococcus pneumoniae; Streptococcus pneumoniae, isolate 25—B1214, read-out: MIC",1 µg/mL
same,MIC,"Streptococcus pneumoniae; Streptococcus pneumoniae, n=25 per group, read-out: Median MIC",1 µg/mL
same,MIC50,"Streptococcus pneumoniae; Streptococcus pneumoniae, 25 isolates, Summary of Results, read-out: MIC50",1 µg/mL
same,MIC90,"Streptococcus pneumoniae; Streptococcus pneumoniae, 25 isolates, Summary of Results, read-out: MIC90",2 µg/mL
same,MIC,"Streptococcus pneumoniae; Streptococcus pneumoniae, 25 isolates, Summary of Results, read-out: Median MIC",1 µg/mL
same,MIC50,Streptococcus pneumoniae; n=25 per group,1 µg/mL
same,MIC90,Streptococcus pneumoniae; n=25 per group,2 µg/mL
same,Range of MICs,Streptococcus pneumoniae; n=25 per group,0.5 to 128 µg/mL
same,MIC50,"[1]; 25 isolates, Row 13",4 µg/mL
same,MIC90,"[1]; 25 isolates, Row 22, >64 was Replaced with 128",8 µg/mL
same,Range of MICs,[1]; [2],1 to 32 µg/mL
same,MIC,"[1]; 25 ocular isolates, Mueller-Hinton broth with 2% lysed horse red blood cells, read-out: Median MIC",4 µg/mL
same,MIC,"[1]; isolate 1—K1684, read-out: MIC",2 µg/mL
same,MIC,"[1]; isolate 2—K1680, read-out: MIC",4 µg/mL
same,MIC,"[1]; isolate 3—E546, read-out: MIC",1 µg/mL
same,MIC,"[1]; isolate 4—E272, read-out: MIC",2 µg/mL
same,MIC,"[1]; isolate 5—E506, read-out: MIC",16 µg/mL
same,MIC,"[1]; isolate 6—E496, read-out: MIC",1 µg/mL
same,MIC,"[1]; isolate 7—E456, read-out: MIC",4 µg/mL
same,MIC,"[1]; isolate 8—E432, read-out: MIC",4 µg/mL
same,MIC,"[1]; isolate 9—E423, read-out: MIC",4 µg/mL
same,MIC,"[1]; isolate 10—E418, read-out: MIC",8 µg/mL
same,MIC,"[1]; isolate 11—E412, read-out: MIC",2 µg/mL
same,MIC,"[1]; isolate 12—E409, read-out: MIC",8 µg/mL
same,MIC,"[1]; isolate 13—E405, read-out: MIC",4 µg/mL
